We go through one molecule from patent US6855512B2, “Methods for identifying inhibitors of cytochrome P450RAI” (Allergan, Inc., priority 2000, dated 2005).

Structures are written as SMILES.

The target of one experiment is T1, RARα (Homo sapiens, UniProt P10276).
T1 sequence (P10276 183-417 limits assumed): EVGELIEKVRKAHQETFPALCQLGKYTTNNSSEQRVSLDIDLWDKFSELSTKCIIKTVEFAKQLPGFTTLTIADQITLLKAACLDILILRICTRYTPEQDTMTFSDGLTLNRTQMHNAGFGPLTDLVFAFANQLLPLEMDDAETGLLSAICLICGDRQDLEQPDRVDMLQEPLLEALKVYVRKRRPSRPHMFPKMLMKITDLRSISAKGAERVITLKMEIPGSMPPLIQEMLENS
Kind of experiment: chimeric receptor transactivation assay, RARα. The settings on record: EC50 line of EC50/(EFFICACY)/Kd, read-out: RAR α EC50. The experiment is classed as cell-based. The text has this: (§1) Assays described below measure the ability of a compound to bind to, and/or activate various retinoid receptor subtypes. When in these assays a compound binds to a given receptor subtype and activates the transcription of a reporter gene through that subtype, then the compound is considered an agonist of that receptor subtype. […] In the below described assays the ability of the compounds to bind to RARα, RARβ, RARγ, RXRα, RXRβ and RXRγ receptors, and the ability or inability of the compounds to activate transcription of a reporter gene through these receptor subtypes can be tested.
(§2) The results obtained in this assay are expressed in EC50 numbers, as they are also in the chimeric receptor transactivation assay. The results of ligand binding assay are expressed in Kd numbers.

The target of another experiment is T2, RARγ (Homo sapiens, UniProt P13631).
T2 sequence (P13631 1-454): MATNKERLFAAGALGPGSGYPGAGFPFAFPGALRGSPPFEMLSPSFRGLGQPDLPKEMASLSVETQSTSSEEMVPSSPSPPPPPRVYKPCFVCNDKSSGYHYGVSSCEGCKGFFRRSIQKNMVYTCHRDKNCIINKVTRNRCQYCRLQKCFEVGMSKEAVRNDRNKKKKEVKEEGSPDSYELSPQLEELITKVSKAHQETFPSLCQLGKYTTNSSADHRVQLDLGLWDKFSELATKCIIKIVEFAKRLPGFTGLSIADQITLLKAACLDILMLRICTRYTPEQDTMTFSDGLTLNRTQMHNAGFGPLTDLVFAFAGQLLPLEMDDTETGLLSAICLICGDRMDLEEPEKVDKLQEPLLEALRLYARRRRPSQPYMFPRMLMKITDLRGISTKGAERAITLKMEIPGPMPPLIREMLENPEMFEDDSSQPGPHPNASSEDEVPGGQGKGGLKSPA
The experiment can be described thus: ligand binding assay, RARγ. The following applies: Kd line of EC50/(EFFICACY)/Kd, K = thousand, read-out: RAR γ Kd.
Excerpt: as §1, §2

As usually defined, the EC50 is the concentration giving half of the maximal effect. By Kd is commonly meant the free concentration of one partner at which half of the binding sites on the other are occupied at equilibrium, for simple one-to-one binding. Take `CC1(C)CC(C)(C)c2cc(C#Cc3ccc(C(=O)O)cc3)ccc2O1` [Compound 201]: at RARα, the EC50 is greater than 10 µM. On RARγ, the Kd is 4.39 µM.
